Patent US12655107B2 (The United States of America, as represented by the …, priority 2018, dated 2026)
Like-named read-outs stand apart in the source and are kept apart here.

Legend:
A549 = test: MTT cytotoxicity assay, A549; type: cell-based, human; conditions: 72 h, Table 7, read-out: GI50 ± SC (μM) A-49
Method: (§1) Cytotoxicity Assays. […] The cells were incubated with the tested compounds for 72 hours in a five-dose assay ranging from 0.01 to 100 μM concentration. After drug treatments, MTT solution was added to test the percentage growth of tumor cells.
(§2) The compounds were incubated with the cells for 72 hours in a five-dose assay ranging from 0.01 to 100 μM concentration. At the end of the incubation, the MTT solution was added to test the percentage growth of tumor cells.
(§3) For the drug treatment experiments, the cancer cells were treated with the compounds (predissolved in DMSO) at a five-dose assay ranging from 0.01 to 100 μM concentration. […] After 4 h incubation, the formazan crystal formed in the well was dissolved with […] of DMSO for optical density reading at 570 nm. The GI50 value was calculated by nonlinear regression analysis (GraphPad Prism).

NCI-60 cell lines = test: NCI-60 cytotoxicity, mean graph midpoint; conditions: read-out: GI50 (μM) MGM; mean graph midpoint of all cell lines, 48 h, sulforhodamine B
HCT116 = test: MTT cytotoxicity assay, HCT116; type: cell-based, human
Method: as §1, §2, §3

DU145 = test: MTT cytotoxicity assay, DU145; type: cell-based, human
Method: as §1, §2, §3

SK-MEL-2 = test: NCI-60 cytotoxicity; type: cell-based, human; conditions: NCI-60 Melanoma, 48 h
Method: (§4) Cell growth inhibition (GI50 in Table 3) was calculated relative to cells without compound treatment and the time zero control.
(§5) Regarding Table 8, according to the NCI established procedures, the cells were incubated with 67 or 50 for 48 hours and stained with sulforhodamine B dye.

SW-620 = test: NCI-60 cytotoxicity; type: cell-based, human; conditions: NCI-60 Colon Cancer, 48 h
Method: as §4, §5

DU-145 = test: NCI-60 cytotoxicity; type: cell-based, human; conditions: read-out: GI50 (μM) DU-145; NCI-60 Prostate Cancer, 48 h
Method: as §4, §5

SNB-19 = test: NCI-60 cytotoxicity; type: cell-based, human; conditions: NCI-60 CNS Cancer, 48 h
Method: as §4, §5

MDA-MB-468 = test: NCI-60 cytotoxicity; type: cell-based, human; conditions: NCI-60 Breast Cancer, 48 h
Method: as §4, §5

T-47D = test: NCI-60 cytotoxicity; type: cell-based, human; conditions: NCI-60 Breast Cancer, 48 h
Method: as §4, §5

OVCAR-4 = test: NCI-60 cytotoxicity; type: cell-based, human; conditions: NCI-60 Ovarian Cancer, 48 h
Method: as §4, §5

NCI/ADR-RES = test: NCI-60 cytotoxicity; type: cell-based, human; conditions: NCI-60 Ovarian Cancer, 48 h
Method: as §4, §5

SF-268 = test: NCI-60 cytotoxicity; type: cell-based, human; conditions: NCI-60 CNS Cancer, 48 h
Method: as §4, §5

SK-MEL-5 = test: NCI-60 cytotoxicity; type: cell-based, human; conditions: NCI-60 Melanoma, 48 h
Method: as §4, §5

HOP-92 = test: NCI-60 cytotoxicity; type: cell-based, human; conditions: NCI-60 Non-Small Cell Lung Cancer, 48 h
Method: as §4, §5

SK-MEL-28 = test: NCI-60 cytotoxicity; type: cell-based, human; conditions: NCI-60 Melanoma, 48 h
Method: as §4, §5

HOP-62 = test: NCI-60 cytotoxicity; type: cell-based, human; conditions: NCI-60 Non-Small Cell Lung Cancer, 48 h
Method: as §4, §5

HCT-15 = test: NCI-60 cytotoxicity; type: cell-based, human; conditions: NCI-60 Colon Cancer, 48 h
Method: as §4, §5

SK-OV-3 = test: NCI-60 cytotoxicity; type: cell-based, human; conditions: NCI-60 Ovarian Cancer, 48 h
Method: as §4, §5

OVCAR-8 = test: NCI-60 cytotoxicity; type: cell-based, human; conditions: NCI-60 Ovarian Cancer, 48 h
Method: as §4, §5

MALME-3M = test: NCI-60 cytotoxicity; type: cell-based, human; conditions: read-out: GI50 (μM) MALME-3M; NCI-60 Melanoma, 48 h
Method: as §4, §5

UACC-62 = test: NCI-60 cytotoxicity; type: cell-based, human; conditions: NCI-60 Melanoma, 48 h
Method: as §4, §5

MCF7 = test: NCI-60 cytotoxicity; type: cell-based, human; conditions: NCI-60 Breast Cancer, 48 h
Method: as §4, §5

SN 12C = test: NCI-60 cytotoxicity; type: cell-based, human; conditions: NCI-60 Renal Cancer, 48 h
Method: as §4, §5

Top1 = target: T1, Top1 (Homo sapiens, UniProt P11387); test: Top1-mediated DNA cleavage assay; type: biochemical; conditions: graded relative to CPT at 1 μM, Table 7
T1 sequence (P11387 1-765): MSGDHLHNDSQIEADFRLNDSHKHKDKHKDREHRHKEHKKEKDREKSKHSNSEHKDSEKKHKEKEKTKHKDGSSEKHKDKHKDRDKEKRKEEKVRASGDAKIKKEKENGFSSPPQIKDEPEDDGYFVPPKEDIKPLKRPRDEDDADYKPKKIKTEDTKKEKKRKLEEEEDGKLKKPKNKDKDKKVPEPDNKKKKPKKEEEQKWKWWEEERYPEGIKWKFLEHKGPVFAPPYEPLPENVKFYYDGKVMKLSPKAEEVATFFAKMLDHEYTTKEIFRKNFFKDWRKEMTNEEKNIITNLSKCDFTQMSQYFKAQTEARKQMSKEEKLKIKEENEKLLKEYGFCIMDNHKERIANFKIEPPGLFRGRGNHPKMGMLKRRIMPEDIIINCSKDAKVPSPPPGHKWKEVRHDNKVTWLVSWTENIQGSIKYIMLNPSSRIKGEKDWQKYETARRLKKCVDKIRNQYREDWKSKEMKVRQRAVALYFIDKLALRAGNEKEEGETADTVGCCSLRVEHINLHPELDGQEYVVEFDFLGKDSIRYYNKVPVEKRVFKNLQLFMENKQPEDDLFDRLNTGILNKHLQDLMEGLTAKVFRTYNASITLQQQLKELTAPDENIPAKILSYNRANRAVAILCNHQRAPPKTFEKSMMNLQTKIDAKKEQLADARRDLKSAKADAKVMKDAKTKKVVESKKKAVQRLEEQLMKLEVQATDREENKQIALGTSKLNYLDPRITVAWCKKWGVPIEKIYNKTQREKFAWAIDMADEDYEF

MCF-7 = test: MTT cytotoxicity assay, MCF-7; type: cell-based, human
Method: as §2, §3

[1] = 72 h, Table 7, read-out: GI50 ± SC (μM) HCT116
[2] = 72 h, Table 7, read-out: GI50 ± SC (μM) DU145
[3] = 72 h, Table 7, read-out: GI50 ± SC (μM) MCF-7

Structure (SMILES)	GI50 (A549) [µM]	GI50 (NCI-60 cell lines) [µM]	GI50 (HCT116; [1]) [µM]	GI50 (DU145; [2]) [µM]	GI50 (SK-MEL-2) [µM]	GI50 (SW-620) [µM]	GI50 (DU-145) [µM]	GI50 (SNB-19) [µM]	GI50 (MDA-MB-468) [µM]	GI50 (T-47D) [µM]	GI50 (OVCAR-4) [µM]	GI50 (NCI/ADR-RES) [µM]	GI50 (SF-268) [µM]	GI50 (SK-MEL-5) [µM]	GI50 (HOP-92) [µM]	GI50 (SK-MEL-28) [µM]	GI50 (HOP-62) [µM]	GI50 (HCT-15) [µM]	GI50 (SK-OV-3) [µM]	GI50 (OVCAR-8) [µM]	further results
COc1cc2c(=O)n(CCN)c3c4cc5c(cc4ccc3c2cc1OC)OCO5 [Compound 67, 12-(2-aminoethyl)-2,3-dimethoxy-[1,3]dioxolo[4′,5′:4,5]benzo[1,2-c]phenanthridin-13(12-H)-one]	0.98 ± 0.014	0.525	0.29 ± 0.019	0.014 ± 0.001	3.01	0.243	0.527	0.398	0.157	0.368	0.782	1.01	0.442	0.614	3.56	3.05	0.399	0.42	1.24	0.93	GI50 (MALME-3M): 0.613 µM; GI50 (UACC-62): 0.278 µM; GI50 (MCF7): 0.164 µM; GI50 (SN 12C): 0.739 µM; TOP1 inhibition (Top1): ++ (++, between 50% and 75% activity); GI50 (MCF-7; [3]): 0.1 ± 0.001 µM
CNCCn1c(=O)c2cc(OC)c(OC)cc2c2ccc3cc4c(cc3c21)OCO4 [Compound 50, 2,3-dimethoxy-12-(2-(methylamino)ethyl)-[1,3]dioxolo[4′5′:4,5]benzo[1,2-c]phenanthridin-13(12H)-one]	0.97	0.0977	0.036	0.002	0.393	0.0658	0.13	0.116	0.0599	0.0757	0.154	0.165	0.0903	0.0909	0.184	0.573	0.0439	0.116	0.157	0.132	GI50 (HCT116; drug-resistance panel, read-out: GI50 ± SD (μM) Parental cell line HCT116): 0.036 ± 0.003 µM; GI50 (DU145; read-out: GI50 ± SD (μM) Parental cell line DU-145, drug-resistance panel): 0.002 ± 0.001 µM; GI50 (MALME-3M): 0.174 µM; GI50 (UACC-62): 0.0451 µM; GI50 (MCF7): 0.0292 µM; GI50 (SN 12C): 0.171 µM; TOP1 inhibition (Top1): +++ (+++, between 75% and 95% activity); GI50 (MCF-7; [3]): 0.09 µM; GI50 (MCF-7; drug-resistance panel, read-out: GI50 ± SD (μM) Parental cell line MCF-7): 0.1 ± 0.001 µM
